Assay results published in article PMC9682480, ““Vermellogens” and the Development of CB[8]-Based Supramolecular Switches Using pH-Responsive and Non-Toxic Viologen Analogues” (Journal of the American Chemical Society, 2022).

What was measured:
[1] = Cell viability assay (WST-1) in human fibroblastic cell line; assay type: cell-based; settings: human, HFF-1 fibroblast cells; HFF-1, 0.5 mM, 24 h, WST-1; read-out: cell viability (cell survival)
Procedure: (§1) To conclude with this part of our work on the molecular responsiveness of the “vermellogens,” we decided to substantiate whether the bis-pyridinium core in the compounds would have or not a viologen-like reversible redox behavior. Thus, cyclic voltamograms were recorded for RaH·2Cl (2 mM) in buffered aqueous solutions at pH = 2 (0.05 M H3PO4/NaH2PO4), 7 (0.05 M NaH2PO4/Na2HPO4), and 12 (0.05 M Na2HPO4/Na3PO4). Those shown both the acidic (RaH^2+) and basic (Ra^+) forms of the “red thread” owning non-reversible redox peaks (Figure 1b).
(§2) Fibroblast cells (HFF-1; ATTC® SCRC-1041TM) were maintained in Dulbecco’s modified eagle’s medium (DMEM) supplemented with 10% FBS and 1% P/S and kept at 37 °C in a humidified atmosphere containing 5% CO2 until their use. HFF-1 cells were seeded in 96 well-plates at an initial density of 10^4 cells/well and allowed to attach for 24 h at 37 °C. The following day, culture medium was removed, replenished by fresh medium (90 µl) and cells were exposed to different concentration of R aH·2Cl and MV (10 µl; final concentrations 0.01, 0.05, 0.1, 0.5 and 1 mM). Control conditions included cells cultured in culture medium, but in absence of compound. Cells were further incubated for 24 h at 37°C and cell viability was monitored using the tetrazolium salt (WST-1) method.6 Absorbance at 450 nm was measured using a Synergy HTX Plate Reader (Biotek, Winooski, VT, USA) and the percent of cell viability (%) was calculated as follows:
(§3) Viability (%) = […]
(§4) Where Asample and Anegative control depict those absorbance values measured at 450 nm in presence and in absence of compound, respectively. All conditions were tested by triplicate in two independent experiments. Data were expressed as mean ± standard deviation (SD). Statistical analysis was performed by two-ways and one-way ANOVA with Tukey’s LSD post hoc test using IBM SPSS Statistics version 23. A p ≤ 0.05 was considered statistically significant.
(§5) Figure S 138: Compounds tested in WST-1 assay for cell viability.
(§6) 6 Carballo-Pedrares, N.; Kattar, A.; Concheiro, A.; Alvarez-Lorenzo, C.; Rey-Rico, Niosomes-based gene delivery systems for effective transfection of human mesenchymal stem cells. A. Matter. Sci. Eng. 2021, 18, 112307.

[2] = system: HFF-1 cells; test: as above; assay type: cell-based; settings: HFF-1, 1 mM, 24 h, WST-1
Procedure: as §1, §2, §3, §4, §5, §6

[3] = pKa determination by UV–vis acid–base titrations in water; assay type: physicochemical; settings: aqueous phosphate and carbonate buffers; RH^2+/R^+ or MH^+/M; UV–vis titrations in water, chloride salts
From the text: Next, in our study of the stimuli-responsiveness of the “vermellogens”, we proceeded to verify the new analogues as pH-based molecular switches, by conducting UV–vis acid–base titrations in water for the compounds Ra–eH·2Cl. All the new “vermellogens” show similar π–π* main absorption bands centered at λ^1max = 366–377 nm at neutral or slightly acidic pH. An increase in the basicity of the solution produces the decrease of the aforementioned bands and the concomitant rise of new absorptions associated with the deprotonated compounds and centered at λ^2max = 460–475 nm. The pKa values obtained by the aforementioned UV–vis titrations for Ra–eH·2Cl are quite similar, showing no dependence on the substituent on the pyridinium N^+ atoms within their structures (Table 1 and Figures S115–S125). Furthermore, to evaluate the effect of the two different pyridinium heterocycles on the observed anomalous pKa’s, two analogues were prepared (Ma–bH·Cl), in which one of these moieties was substituted by a neutral phenyl ring.
4.2. pK a determination for Rb by UV-Vis
(§7) Figure S 116: UV-Vis spectra for the titration of R b·2Cl at 20 μM in NaH 2PO4/Na2HPO4, KHCO3/K2CO3 and Na2HPO4/Na2PO4 buffers. On the top right: Absorption of R b+ at λ = 474 nm plotted against pH. pH V (mL) of V (mL) of V (mL) of V (mL) of V (mL) of ABS log[A474-(measured) solution A solution B solution C solution D solution E (474 ARb2+)/(ARb1+- […]
(§8) Table S 4: Experimental data obtained for the UV-Vis titration of R b·2Cl at 20 μM in NaH2PO4/Na2HPO4, KHCO3/K2CO3 and Na2HPO4/Na2PO4 buffer. Solution A: 20 μM of R b·2Cl and 0.05 M of NaH2PO4. Solution B: 20 μM of R b·2Cl and 0.05 M of NaHPO4. Solution C: 20 μM of R b·2Cl and 0.05 M of Na2PO4. Solution D: 20 μM of R b·2Cl and 0.05 M of KHCO3. Solution E: 20 μM of R b·2Cl and 0.05 M of […]
4.4. pK a determination for Rc by UV-Vis
as §7, with “119:” for “116:”, “c·2Cl” for “b·2Cl”, “c+” for “b+”, “466” for “474”, “log[A466-(measured)” for “log[A474-(measured)”, “(466 ARc2+)/(ARc+-” for “(474 ARb2+)/(ARb1+-”
Table S 5: Experimental data obtained for the UV-Vis titration of R c·2Cl at 20 μM in NaH2PO4/Na2HPO4, KHCO3/K2CO3 and Na2HPO4/Na2PO4 buffer. Solution A: 20 μM of Rc·2Cl and 0.05 M of NaH2PO4. Solution B: 20 μM of R c·2Cl and 0.05 M of NaHPO4. Solution C: 20 μM of R c·2Cl and 0.05 M of Na2PO4. Solution D: 20 μM of R c·2Cl and 0.05 M of KHCO3. Solution E: 20 μM of R c·2Cl and 0.05 M of […]
4.6. pK a determination for Rd by UV-Vis
as §7, with “122:” for “116:”, “d·2Cl” for “b·2Cl”, “d+” for “b+”, “475” for “474”, “log[A475-(measured)” for “log[A474-(measured)”, “(475 ARd2+)/(ARd1+-” for “(474 ARb2+)/(ARb1+-”
as §8, with “6:” for “4:”, “d·2Cl” for “b·2Cl”
4.8. pK a determination for Re by UV-Vis
as §7, with “125:” for “116:”, “e·2Cl” for “b·2Cl”, “e+” for “b+”, “460” for “474”, “log[A460-(measured)” for “log[A474-(measured)”, “(460 ARe2+)/(ARe1+-” for “(474 ARb2+)/(ARb1+-”
Table S 7: Experimental data obtained for the UV-Vis titration of R e·2Cl at 20 μM in NaH2PO4/Na2HPO4, KHCO3/K2CO3 and Na2HPO4/Na2PO4 buffer. Solution A: 20 μM of R e·2Cl and 0.05 M of […]

## C[n+]1ccc(/C=N/Nc2cc[n+](C)cc2)cc1 [RaH·2X, (E)-1-methyl-4-((2-(1-methylpyridin-1-ium-4-yl)hydrazineylidene)methyl)pyridin-1-ium]
[1]
  viability at 24 h, 0.5 mM: ~90%
[2]
  cell survival at the highest concentration tested: slight reduction on cell survival
[3]
  pKa: 9
